Here are results for 6 compounds from patent US12344616B2, “Factor XIa inhibitors” (Merck Sharp & Dohme LLC, priority 2018, dated 2025).

Structures are written as SMILES. Converted amounts (≈) assume the structure as drawn. Like-named read-outs stand apart in the source and are kept apart here. Where only a bound is given, the exact number is not on record here.

Data set [1] is described as follows: High-throughput (HT) solubility determination. Type of data set: physicochemical. To be noted: kinetic from dmso stock. The method, then: The chromatographic system consists of an Agilent 1290 UPLC/DAD system and ChemStation software, both from Agilent Technologies, USA. The separations are carried out on a Supelco Ascentis Express C18, 30 mm×3.0 mm I.D., 2.7 μm HPLC column. The mobile phase consists of Potassium phosphate buffered at pH 7 (mobile phase A) and acetonitrile (mobile phase B). The column oven temperature is set to 30° C. and the UPLC analysis consists of a gradient. The injection volume is 2 μL and the spectrophotometric detection is set to 215 and 238 nm.
A 10 mM stock solution of the compound in DMSO is supplied for analysis. 2.5 μL of stock solution (10 mM) was diluted into 247.5 μL of organic co-solvents (10% MeCN/80% MeOH/10% DMSO, v/v/v) to create a standard solution of 100 μM. To create the solubility solutions, 4.1 μL of 10 mM DMSO stock solution was diluted into […] (PBS) (pH 7) solution. A second 4.1 μL aliquot of 10 mM DMSO stock solution was added to 196 μL of PBS (pH 2) solution. A third 4.1 μL aliquot of 10 mM DMSO stock solution was added to 196 μL of FaSSIF (pH 6.5) solution. Each solubility solution was sealed and shaken for 24 hours at 25° C. Filtered the equilibrated solubility solutions by centrifugation using a filter (0.45 μm, polypropylene). Placed 50 μL each of the 100 μM standard solution and the filtered equilibrated solubility solutions into a 384 well plate, and the plate was subsequently heat sealed.
Analyzed each standard and solubility solution by UPLC/DAD. The solubility value was calculated by the following equation: Solubility=(Peak area of sample/Peak area of standard)(Standard concentration)

For a further data set, the target named is human Factor XIa (Homo sapiens (Human), UniProt P03951). The experiment in a line: Factor XIa assay. The class given is biochemical. To be noted: human Factor XIa 0.04 nM, GPR-AFC substrate, 25° C.; read-out: FXIa IC50. The method, then: The effectiveness of a compound of the present invention as an inhibitor of Coagulation Factor XIa can be determined using a relevant purified serine protease, and an appropriate synthetic substrate. The rate of hydrolysis of the chromogenic or fluorogenic substrate by the relevant serine protease was measured both in the absence and presence of compounds of the present invention. Assays were conducted at room temperature or at 37° C. […] A decrease in the rate of fluorescence change in the presence of inhibitor is indicative of enzyme inhibition. Such methods are known to one skilled in the art. The results of this assay are expressed as the half-maximal inhibitory concentrations (IC50), or the inhibitory constant, Ki.
Compounds were pre-incubated for 30 minutes at 25° C. with human (0.04 nM) Factor XIa in 50 mM HEPES buffer with 150 mM sodium chloride, 5 mM calcium chloride, 0.1% PEG 8000, pH 7.4. Factor XIa enzymatic activity was determined by addition of the substrate glycine-proline-arginine-7-amido-4-trifluoromethylcoumarin (GPR-AFC) and measurement of the fluorescence at 400/505 nm after a 60 minute incubation at 25° C. The % inhibition for each data point was calculated from the data and analyzed using the log (inhibitor) vs. response four parameters equation to determine the half-maximal inhibitory concentrations (IC50). The IC50 were, converted to equilibrium inhibitory constants (Ki) using the Cheng-Prusoff equation.

Data set [2] has as its target Human Norepinephrine Transporter (NET) (Homo sapiens (Human), UniProt P23975). The experiment in a line: Norepinephrine Transporter functional antagonist uptake assay. To be noted: [3H]Norepinephrine uptake, MDCK cells expressing human recombinant NET. Type of data set: cell-based. The protocol: Human Norepinephrine Transporter (NET) Functional Antagonist Uptake Assay was carried out at Panlabs Cerep (assay #302100). Human recombinant norepinephrine transporter expressed in MDCK cells were plated overnight. Test compound and/or vehicle was pre-incubated with cells (2×10E5/ml) in modified Tris-HEPES buffer pH 7.1 for 20 minutes at 25° C. and 25 nM [3H]Norepinephrine was then added for an additional 15 minute incubation period. A lysate was obtained from solubilized cells and counted to determine [3H]Norepinephrine uptake. Reduction of [3H]Norepinephrine uptake by 50 percent or more (≥50%) relative to 10 μM desipramine indicates significant inhibitory activity. Compounds are screened at 10, 3, 1, 0.3, 0.1, 0.03, 0.01 and 0.003 μM. These same concentrations are concurrently applied to a separate group of untreated cells and evaluated for possible compound-induced cytotoxicity only if significant inhibition of uptake is observed. IC50 values were determined by a non-linear, least squares regression analysis using MathIQ™ (IDBusiness Solutions Ltd., UK).

Data set [3] in a line: Rat screening IV/PO pharmacokinetics. Type of data set: in vivo. To be noted: male, plasma, mean residence time, IV/PO procedure. The method, then:
Plasma pharmacokinetic parameters for clearance, volume of distribution, half-life, mean residence time (MRT) and oral bioavailability (% F)—were determined in rats from oral administration and IV administration studies. 4 male rats, typically weighing 225-260 gram, were fasted overnight prior to dosing. Compounds were prepared for oral and IV dosing by addition to a vehicle, depending on the dose used. For a typical preparation, 1 mg per mL (IV) or 1.5 mg per mL (oral) of test compound was added to vehicle comprised of 20% dimethyl sulfoxide (DMSO), 60% polyethylene glycol 400 (PEG400) and 20% water. IV formulation was administered to 2 rats via pre-cannulated jugular vein, and oral dosing was administered to 2 rats via oral gavage. Blood was collected by pre-cannulated artery, typically at predose, 2 min, 8 min, 15 min, 30 min, and 1, 2, 4, 6, and 8 hr postdose for IV, and at predose, 15 min, 30 min, and 1, 2, 4, 6, 8 hr for oral dosing. Samples were collected in K2EDTA tubes, stored on ice, and centrifuged. Plasma was transferred to a micro titer plate and stored at −70° C. until analysis. Plasma samples were extracted using protein precipitation and analyzed by liquid chromatography separation followed by mass spec detection (LCMS/MS), using a standard curve for each compound. Plasma pharmacokinetic parameters were calculated for IV and oral dosing data by non-compartmental methods. Oral bioavailability was determined as the ratio of the dose-normalized plasma area under the curve (AUC) following oral dosing vs. IV dosing.

[4] abbreviates: FaSSIF pH 6.5, 24 hours at 25° C., read-out: pH 6.5 (FaSSIF) solubility.
Where [5] appears, read: phosphate buffered saline (PBS) pH 2, aqueous buffer, PBS pH 2, 24 hours at 25° C., read-out: pH 2 solubility.

Human Norepinephrine Transporter (NET), sequence (P23975 whole entry): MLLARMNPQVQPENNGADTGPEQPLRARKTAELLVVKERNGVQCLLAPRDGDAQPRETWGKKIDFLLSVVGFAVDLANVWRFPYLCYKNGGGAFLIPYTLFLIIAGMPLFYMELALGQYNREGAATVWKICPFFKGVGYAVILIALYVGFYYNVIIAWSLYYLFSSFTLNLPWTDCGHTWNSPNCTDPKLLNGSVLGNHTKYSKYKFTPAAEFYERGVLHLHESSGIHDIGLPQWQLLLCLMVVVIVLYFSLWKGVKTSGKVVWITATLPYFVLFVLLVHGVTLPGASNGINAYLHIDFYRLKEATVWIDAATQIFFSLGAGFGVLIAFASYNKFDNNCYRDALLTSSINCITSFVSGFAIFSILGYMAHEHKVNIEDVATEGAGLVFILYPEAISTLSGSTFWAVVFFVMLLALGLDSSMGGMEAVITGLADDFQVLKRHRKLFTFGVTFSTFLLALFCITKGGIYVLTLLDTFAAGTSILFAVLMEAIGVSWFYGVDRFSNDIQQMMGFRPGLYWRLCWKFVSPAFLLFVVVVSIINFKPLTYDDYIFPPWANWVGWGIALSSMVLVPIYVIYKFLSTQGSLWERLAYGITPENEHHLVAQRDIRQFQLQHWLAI
human Factor XIa, sequence (P03951 388-625): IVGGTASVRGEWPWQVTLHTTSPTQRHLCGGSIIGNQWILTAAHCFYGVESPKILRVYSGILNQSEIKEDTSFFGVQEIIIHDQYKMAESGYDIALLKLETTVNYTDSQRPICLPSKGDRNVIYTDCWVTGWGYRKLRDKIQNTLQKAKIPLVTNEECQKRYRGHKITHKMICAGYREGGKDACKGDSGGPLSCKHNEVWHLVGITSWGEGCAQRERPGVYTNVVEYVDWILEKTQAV
human Factor XIa, sequence (P03951 19-387 partner): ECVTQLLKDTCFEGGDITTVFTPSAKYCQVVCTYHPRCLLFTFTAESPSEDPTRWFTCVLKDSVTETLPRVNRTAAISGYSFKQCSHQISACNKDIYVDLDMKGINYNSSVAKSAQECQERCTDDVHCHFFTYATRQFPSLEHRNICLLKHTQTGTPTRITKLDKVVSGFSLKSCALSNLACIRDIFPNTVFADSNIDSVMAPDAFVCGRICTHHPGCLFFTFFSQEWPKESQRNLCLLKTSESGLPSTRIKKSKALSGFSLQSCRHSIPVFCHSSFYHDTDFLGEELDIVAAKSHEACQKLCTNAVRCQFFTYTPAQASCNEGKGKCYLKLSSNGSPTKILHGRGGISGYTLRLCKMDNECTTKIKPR

On to `COC(=O)Nc1ccc2c(c1)NC(=O)C(C)(C)CCC[C@H](c1ccc(-c3cc(Cl)cnc3OC(F)F)c[n+]1[O-])c1nc-2c(C)[nH]1` [Example 6, (R,Z)-5′-chloro-2′-(difluoromethoxy)-6-(2^4-((methoxycarbonyl)amino)-1^5,5,5-trimethyl-4-oxo-1^1H-3-aza-1(4,2)-imidazola-2(1,2)-benzenacyclononaphane-9-yl)-[3,3′-bipyridine]1-oxide], for which the solubility kinetic at 24 h came out at 55 µM (≈ 35.3 µg/mL) in data set [1] (setting [4]) and 143 µM (≈ 91.7 µg/mL) in data set [1] (setting [5]). In addition, the figures for the IC50 (on human Factor XIa; in data set [2]) were 4.4 nM and 180 nM, respectively. Further, the MRT in data set [3] came to 5.6 h.
For `COC(=O)Nc1ccc2c(c1)NC(=O)C(C)(C)CCC[C@H](c1ccc(-c3c(-n4cc(C(F)(F)F)cn4)ccc(F)c3F)c[n+]1[O-])c1nc-2c(C)[nH]1` [Example 1, (R,Z)-5-(2,3-difluoro-6-(4-(trifluoromethyl)-1H-pyrazol-1-yl)phenyl)-2-(2^4-((methoxycarbonyl)amino)-1^5,5,5-trimethyl-4-oxo-1^1H-3-aza-1(4,2)-imidazola-2 (1,2)-benzenacyclononaphane-9-yl)pyridine 1-oxide], in that order: 36 µM (≈ 25.5 µg/mL), over 200 µM, 1.5 nM, over 10000 nM and 5.8 h.
In the case of `COC(=O)Nc1ccc2c(c1)NC(=O)C(C)(C)CCC[C@H](c1ccc(-c3cc(F)ccc3-n3cc(C(F)(F)F)cn3)c[n+]1[O-])c1nc-2c(C)[nH]1` [Example 2, (R.Z)-5-(5-fluoro-2-(4-(trifluoromethyl)-1H-pyrazol-1-yl)phenyl)-2-(2^4-((methoxycarbonyl)amino)-1^5,5,5-trimethyl-4-oxo-1^1H-3-aza-1(4,2)-imidazola-2(1,2)-benzenacyclononaphane-9-yl)pyridine 1-oxide], the solubility kinetic at 24 h in data set [1] (setting [4]) stood at 53 µM (≈ 36.7 µg/mL); in data set [1] (setting [5]), 209 µM (≈ 145 µg/mL). The figures for the half-inhibitory concentration (IC50) (on human Factor XIa; in data set [2]) were 2.9 nM and over 10000 nM, respectively. This compound gave an MRT in data set [3] of 5.7 h.
Turning to `COC(=O)Nc1ccc2c(c1)NC(=O)C(C)(C)CCC[C@H](c1ccc(-c3cc(Cl)ccc3-n3cc(C(F)F)cn3)c[n+]1[O-])c1nc-2c(C)[nH]1` [Example 4, (R,Z)-5-(5-chloro-2-(4-(difluoromethyl)-1H-pyrazol-1-yl)phenyl)-2-(2^4-((methoxycarbonyl)amino)-1^5,5,5-trimethyl-4-oxo-1^1H-3-aza-1(4,2)-imidazola-2(1,2)-benzenacyclononaphane-9-yl)pyridine 1-oxide], the values for the solubility kinetic at 24 h in data set [1] (setting [4]) and in data set [1] (setting [5]) were 44 µM (≈ 30.4 µg/mL) and 166 µM (≈ 115 µg/mL), respectively. Besides, the IC50 on human Factor XIa was determined as 0.9 nM; in data set [2] it was 6500 nM. The same compound returned an MRT in data set [3] of 2.7 h.
On to `COC(=O)Nc1ccc2c(c1)NC(=O)C(C)(C)CCC[C@H](c1ccc(-c3cc(F)ccc3-c3cnn(C(F)(F)F)c3)c[n+]1[O-])c1nc-2c(C)[nH]1` [Example 5, (R,Z)-5-(5-fluoro-2-(1-(trifluoromethyl)-1H-pyrazol-4-yl)phenyl)-2-(2^4-((methoxycarbonyl)amino)-1^5,5,5-trimethyl-4-oxo-1^1H-3-aza-1(4,2)-imidazola-2(1,2)-benzenacyclononaphane-9-yl)pyridine 1-oxide], for which the solubility kinetic at 24 h is 50 µM (≈ 34.6 µg/mL) in data set [1] (setting [4]) and 146 µM (≈ 101 µg/mL) in data set [1] (setting [5]). Moreover, the half-inhibitory concentration (IC50) on human Factor XIa was 2 nM; in data set [2], over 10000 nM. The same compound displayed a mean residence time MRT in data set [3] of 4.5 h.
As for `COC(=O)Nc1ccc2c(c1)NC(=O)C(C)(C)CCC[C@H](c1ccc(-c3cc(Cl)ccc3-n3cc(C(F)(F)F)cn3)c[n+]1[O-])c1nc-2c(C)[nH]1` [Example 3], the solubility kinetic at 24 h in data set [1] (setting [4]) worked out at 27 µM (≈ 19.1 µg/mL); in data set [1] (setting [5]), 159 µM (≈ 113 µg/mL). For the same compound, the results for the IC50 (at human Factor XIa; in data set [2]) were 0.89 nM and over 10000 nM, respectively. Besides, the mean residence time MRT in data set [3] came to 11 h.

Broadly, the IC50 is the concentration that gives 50% inhibition. As a reminder, the MRT is the average time that molecules of a dose stay in the body.
